Source: ChEMBL document CHEMBL1201862, “PubChem BioAssay data set” (2004)
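Briefly, cells in 96-well plates were exposed to five compound concentrations for 48 h, and endpoints were estimated by linear interpolation. At the GI50, growth is halved.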 The source made the active and inactive calls. Cut-off read from the data, not from the text of the source: active = GI50 up to about 1.1 µM and inactive = higher.

Legend:
Experiment in all cases: NCI anticancer screen, dose series, 48 h
[1] = test system: UACC-62
[2] = test system: SF-539
[3] = test system: M14
[4] = test system: HOP-92
[5] = test system: SK-OV-3
[6] = test system: RPMI-8226
[7] = test system: SW-620
[8] = test system: TK-10
[9] = test system: 786-0
[10] = test system: HCC 2998
[11] = test system: EKVX
[12] = test system: SNB-75
[13] = test system: MOLT-4
[14] = test system: NCI/ADR-RES
[15] = test system: NCI-H226
[16] = test system: SK-MEL-2
[17] = test system: OVCAR-4
[18] = test system: CCRF-CEM
[19] = test system: A498
[20] = test system: HL-60

Measured: GI50

COc1ccc(/N=C2\C(=N/c3ccc(OC)cc3)N(S(=O)(=O)c3ccccc3)C(=S)N2c2ccc(OC)cc2)cc1
inactive: [1] > 100 µM | [2] > 100 µM | [3] 25.1 µM | [4] > 100 µM | [5] > 100 µM | [6] > 100 µM | [7] > 100 µM | [8] > 100 µM | [9] > 100 µM | [10] > 100 µM | [11] > 100 µM | [12] 4.88 µM | [13] > 100 µM | [14] > 100 µM | [15] > 100 µM | [16] > 100 µM

CN(Cc1ccccc1)c1nc(=[N+](C)C)ss1
inactive: [17] > 100 µM | [18] 3.55 µM | [1] 24.6 µM | [2] 76.4 µM | [3] > 100 µM | [4] > 100 µM | [19] 99.5 µM | [20] 28.4 µM | [5] 96.8 µM | [6] 28.3 µM | [7] > 100 µM | [8] 35.2 µM | [9] > 100 µM | [10] > 100 µM | [11] > 100 µM | [12] > 100 µM | [13] 32.1 µM | [15] 8.95 µM | [16] 25.9 µM

Nc1c(-c2ccccc2-c2c(N)[n+]([O-])c3ccccc3[n+]2[O-])[n+]([O-])c2ccccc2[n+]1[O-]
inactive: [17] 4.89 µM | [18] 2.49 µM | [1] 3.7 µM | [2] 17.5 µM | [3] 12.2 µM | [4] > 100 µM | [19] 20.8 µM | [20] 3.69 µM | [5] 22.9 µM | [6] 4.73 µM | [7] 8.45 µM | [8] 33.7 µM | [9] 12 µM | [10] 22 µM | [11] 5.37 µM | [12] 22.2 µM | [13] 2.1 µM | [15] 19.5 µM | [16] 34.8 µM

O=C(Cn1c(=O)ccn(C2OC(CO)C(O)C2F)c1=O)c1ccc(F)cc1 (configuration not stated)
inactive: [18] > 100 µM | [1] > 100 µM | [2] > 100 µM | [20] > 100 µM | [6] > 100 µM | [7] > 100 µM | [8] > 100 µM | [9] > 100 µM | [11] > 100 µM | [12] 82.2 µM | [13] > 100 µM | [14] > 100 µM | [15] > 100 µM

COc1ccc(/C=C/c2nnc(S)[nH]2)cc1
inactive: [17] > 100 µM | [18] > 100 µM | [1] > 100 µM | [2] > 100 µM | [3] > 100 µM | [4] > 100 µM | [19] > 100 µM | [20] > 100 µM | [6] > 100 µM | [7] > 100 µM | [8] > 100 µM | [9] > 100 µM | [10] > 100 µM | [11] > 100 µM | [12] > 100 µM | [13] > 100 µM | [15] > 100 µM | [16] > 100 µM

COC(=O)Oc1nn(C(=O)OC)c(=O)c2ccccc12
inactive: [18] > 100 µM | [1] > 100 µM | [2] 61.8 µM | [3] > 100 µM | [20] > 100 µM | [5] > 100 µM | [6] > 100 µM | [7] > 100 µM | [8] > 100 µM | [9] > 100 µM | [10] 59.8 µM | [11] > 100 µM | [12] 54.5 µM | [13] > 100 µM | [14] > 100 µM | [15] > 100 µM | [16] > 100 µM

COC(=O)C1(NC(=O)C(CC(=O)OCc2ccccc2)NC(=O)OCc2ccccc2)CCCCCC1 (configuration not stated)
inactive: [17] 14.1 µM | [1] 16.4 µM | [2] 23.1 µM | [3] > 100 µM | [4] 36.6 µM | [20] 17.7 µM | [5] 35.4 µM | [6] 3.93 µM | [7] 42.8 µM | [8] 67.8 µM | [9] 38.5 µM | [11] 47.6 µM | [12] 35.1 µM | [13] 21.4 µM | [14] 21 µM | [15] 29.4 µM

O=C1c2ccncc2C(=O)c2c(O)ccc(O)c21
inactive: [17] 11.1 µM | [18] 4.33 µM | [1] 3.12 µM | [2] 3.89 µM | [3] 4.65 µM | [4] 17.7 µM | [19] 19 µM | [20] 2.22 µM | [6] 5.16 µM | [7] 2.89 µM | [8] 27.5 µM | [9] 6.38 µM | [10] 4.92 µM | [11] 18 µM | [12] 23.6 µM | [13] 5.89 µM | [15] 15.7 µM | [16] 8.05 µM

Cn1c(S)nnc1CNc1ccc(-c2nnc(S)n2C)cc1
inactive: [17] > 100 µM | [18] > 100 µM | [2] > 100 µM | [3] > 100 µM | [4] > 100 µM | [20] > 100 µM | [5] > 100 µM | [7] > 100 µM | [8] > 100 µM | [9] > 100 µM | [10] > 100 µM | [11] > 100 µM | [12] > 100 µM | [13] > 100 µM | [14] > 100 µM | [15] > 100 µM | [16] > 100 µM

O=C(Cc1ccccc1)NNc1nc(NNC(=O)c2ccncc2)nc(Nc2ccc(Cl)cc2)n1
inactive: [17] > 10 µM | [18] > 10 µM | [1] 9.68 µM | [2] > 10 µM | [3] > 10 µM | [4] > 10 µM | [20] > 10 µM | [5] > 10 µM | [6] > 10 µM | [7] > 10 µM | [8] > 10 µM | [9] > 10 µM | [10] > 10 µM | [11] > 10 µM | [12] > 10 µM | [13] > 10 µM | [14] 5.85 µM

COc1ccc(C2=NOP(c3ccccc3)(c3ccccc3)(c3ccccc3)C2)cc1
inactive: [17] 29.6 µM | [18] 7.98 µM | [1] 13.8 µM | [2] 29.7 µM | [3] 10.8 µM | [4] 6.46 µM | [19] 33.3 µM | [20] 2.13 µM | [5] 43.6 µM | [6] 10.6 µM | [7] 16.2 µM | [8] > 65.6 µM | [9] 21.2 µM | [10] 20.9 µM | [11] 63.1 µM | [12] 33 µM | [13] 7.43 µM | [15] 25.9 µM | [16] 7.08 µM

O=[N+]([O-])CCc1cccc([N+](=O)[O-])c1
inactive: [17] > 100 µM | [18] > 100 µM | [1] > 100 µM | [2] > 100 µM | [3] > 100 µM | [4] > 100 µM | [19] > 100 µM | [20] > 100 µM | [6] > 100 µM | [7] 9.44 µM | [8] > 100 µM | [9] > 100 µM | [10] > 100 µM | [11] > 100 µM | [12] > 100 µM | [13] > 100 µM | [15] > 100 µM | [16] > 100 µM
